Drawing on PubChem BioAssay (NCI), this text covers TGI for 13 compounds.

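Where inhibition never reached the appropriate level, the endpoint shown equals the highest concentration tested. Otherwise, values were interpolated linearly from a five-concentration, 48-hour dose response in 96-well plates. At the TGI there is no net growth.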

Test systems include HCT-116 colon; K-562 leukemia; IGROV1 ovarian; NCI-H226 lung; CCRF-CEM leukemia; U251 CNS; A549 NSCLC; OVCAR-5 ovarian; MALME-3M melanoma; OVCAR-4 ovarian.
Assay in all cases: NCI tumour cell line growth inhibition, 48 h

For `C[C@H]1[C@H](C)CC[C@]2(C(=O)OC3OC(CO)C(O)C(O)C3O)CC[C@]3(C)C(=CC[C@@H]4[C@@]5(C)C[C@H]6OC(=O)c7cc(O)c(O)c(O)c7-c7c(cc(O)c(O)c7O)C(=O)O[C@@H]6C(CO)(CO)[C@@H]5CC[C@]43C)[C@H]12` (stereo not given in full), the TGI with HCT-116 colon is over 100 µM; with K-562 leukemia, over 100 µM; in the assay on IGROV1 ovarian, over 100 µM; in the assay on NCI-H226 lung, over 100 µM; in the assay with CCRF-CEM leukemia it was over 92.3 µM; in the assay with U251 CNS, 42.2 µM. The TGI in the assay on A549 NSCLC, with OVCAR-5 ovarian, in the assay on MALME-3M melanoma and in the assay on OVCAR-4 ovarian was over 100 µM in each case.

Take `COc1nc2c(N3CCCC3)nc(N3CCNCC3)nc2nc1NCc1ccccc1`: the TGI in the assay with HCT-116 colon is 2.63 µM; with K-562 leukemia, 3.58 µM; in the assay on IGROV1 ovarian, 8.8 µM; in the assay on NCI-H226 lung it was 7.1 µM; in the assay with CCRF-CEM leukemia, 6.72 µM; with U251 CNS, 3.5 µM. In addition, the TGI in the assay on A549 NSCLC was 5.34 µM; in the assay on OVCAR-5 ovarian, 8.04 µM; with MALME-3M melanoma it was 3.55 µM; with OVCAR-4 ovarian it was 11.5 µM.

Regarding `COC1C(O)C(O[C@H]2CC[C@@]3(C)C(CC[C@@H]4[C@@H]3CC[C@]3(C)[C@@H](C(C)OC5OC(CO)C(O)C(O)C5O)CC[C@]43O)C2)OC(C)C1OC1OC(CO)C(O)C(O)C1O` (stereo not given in full), the TGI with HCT-116 colon, in the assay on K-562 leukemia, in the assay on IGROV1 ovarian, in the assay on NCI-H226 lung, in the assay with CCRF-CEM leukemia and in the assay with U251 CNS was over 100 µM each time. The TGI with A549 NSCLC, in the assay with OVCAR-5 ovarian, with MALME-3M melanoma and in the assay with OVCAR-4 ovarian was over 100 µM in each case.

Turning to `Clc1nncc2sc(-c3ccccc3)nc12`, the TGI in the assay on HCT-116 colon is 48.9 µM; in the assay on K-562 leukemia, over 100 µM; with IGROV1 ovarian, 40.3 µM; in the assay with NCI-H226 lung, over 82.4 µM; in the assay on CCRF-CEM leukemia, over 94.4 µM; in the assay with U251 CNS it was over 53.2 µM. Besides, the TGI in the assay on A549 NSCLC was over 100 µM; with OVCAR-5 ovarian, over 100 µM; in the assay with MALME-3M melanoma it was 70.6 µM; in the assay with OVCAR-4 ovarian, 53.5 µM.

`Nc1nc(Nc2ccccc2)sc1C(=O)c1ccco1`: the TGI is 36.7 µM in the assay with HCT-116 colon; 57.7 µM in the assay on K-562 leukemia; 60.7 µM in the assay with IGROV1 ovarian; 55.3 µM in the assay with NCI-H226 lung; 17.1 µM with CCRF-CEM leukemia; over 100 µM in the assay with U251 CNS. Moreover, the TGI in the assay on A549 NSCLC worked out at 43.2 µM; in the assay on OVCAR-5 ovarian it was 71.5 µM; in the assay with MALME-3M melanoma it was 57.1 µM; with OVCAR-4 ovarian it was 50.5 µM.

On to `Cc1cc(NS(=O)(=O)c2ccc(NC(NC(=O)C(C(F)(F)F)C(F)(F)F)(C(F)(F)F)C(F)(F)F)cc2)no1`, for which the TGI in the assay on HCT-116 colon, with K-562 leukemia, in the assay on IGROV1 ovarian, with NCI-H226 lung, in the assay on CCRF-CEM leukemia and in the assay on U251 CNS was over 100 µM throughout. Moreover, the TGI in the assay with A549 NSCLC, in the assay on OVCAR-5 ovarian, in the assay on MALME-3M melanoma and in the assay on OVCAR-4 ovarian was over 100 µM in each case.

For the compound `O=S1SC(=S)C2C=CC=CC21` (stereo not given), the TGI is over 100 µM in the assay on HCT-116 colon; over 100 µM in the assay on K-562 leukemia; over 100 µM with IGROV1 ovarian; over 100 µM with NCI-H226 lung; 39 µM with CCRF-CEM leukemia; over 100 µM in the assay on U251 CNS. The TGI with A549 NSCLC, in the assay on OVCAR-5 ovarian, in the assay on MALME-3M melanoma and in the assay on OVCAR-4 ovarian was over 100 µM in each case.

Take `Cc1c(-c2ccccc2)[nH]n(C2=NCCN2)c1=O`: the TGI with HCT-116 colon, with K-562 leukemia, with IGROV1 ovarian, in the assay with NCI-H226 lung, in the assay on CCRF-CEM leukemia and in the assay with U251 CNS was over 100 µM throughout. Besides, the TGI with A549 NSCLC, in the assay with OVCAR-5 ovarian, in the assay with MALME-3M melanoma and with OVCAR-4 ovarian was over 100 µM each time.

As to `COc1ccc(Oc2cnn(C(Br)(Br)C(C)=O)c(=O)c2Br)cc1`, the TGI is 19.2 µM with HCT-116 colon; 16.9 µM with K-562 leukemia; 42.8 µM in the assay on IGROV1 ovarian; 46.6 µM in the assay with NCI-H226 lung; 4.57 µM with CCRF-CEM leukemia; 27.8 µM in the assay on U251 CNS. In addition, the TGI worked out at 60.7 µM with A549 NSCLC, 32.2 µM in the assay on OVCAR-5 ovarian, 32.2 µM with MALME-3M melanoma and 32.6 µM with OVCAR-4 ovarian.

On to `O=S1(=O)c2cnccc2NC(=NCc2ccccc2)N1c1ccccc1`, for which the TGI in the assay on HCT-116 colon, in the assay on K-562 leukemia, in the assay with IGROV1 ovarian, with NCI-H226 lung, with CCRF-CEM leukemia and with U251 CNS was over 100 µM in each case. In addition, the TGI with A549 NSCLC, in the assay on OVCAR-5 ovarian, in the assay with MALME-3M melanoma and with OVCAR-4 ovarian was over 100 µM throughout.

Take `O=C(O)/C=C\C(=O)Nc1ccc(S(=O)(=O)c2ccc(NC(=O)/C=C\C(=O)O)cc2)cc1`: the TGI in the assay with HCT-116 colon, in the assay on K-562 leukemia, in the assay on IGROV1 ovarian, in the assay on NCI-H226 lung, in the assay with CCRF-CEM leukemia and with U251 CNS was over 100 µM in each case. The TGI in the assay on A549 NSCLC, in the assay with OVCAR-5 ovarian, with MALME-3M melanoma and with OVCAR-4 ovarian was over 100 µM throughout.

In the case of `CN(C)CCCNC(=O)c1c(O)c2ccccc2n(C)c1=O`, the TGI with HCT-116 colon, with K-562 leukemia, with IGROV1 ovarian, in the assay with NCI-H226 lung, in the assay with CCRF-CEM leukemia and in the assay with U251 CNS was over 100 µM in each case. The TGI in the assay with A549 NSCLC, in the assay on OVCAR-5 ovarian, in the assay with MALME-3M melanoma and in the assay on OVCAR-4 ovarian was over 100 µM in each case.

Regarding `C[C@]12CC[C@@H]3c4ccc(O)cc4CC[C@H]3[C@@H]1C/C(=C\c1ccc(C#N)cc1)C2=O`, the TGI in the assay with HCT-116 colon, with K-562 leukemia, in the assay with IGROV1 ovarian, in the assay with NCI-H226 lung, in the assay with CCRF-CEM leukemia and with U251 CNS was over 100 µM in each case. Also, the TGI in the assay with A549 NSCLC, in the assay on OVCAR-5 ovarian, with MALME-3M melanoma and in the assay with OVCAR-4 ovarian was over 100 µM each time.
